Read-outs that look alike come from different tables or passages of the source.
How the values were obtained:
[1] = Pharmacokinetics of JHG components in control rats after intragastric administration of JHGs (plasma, Orbitrap Fusion MS); type: in vivo, Sprague Dawley (SD) rats; conditions: for AUC(0-inf) / AUC(0-t) / half-life / MRT last / MRT inf / Tmax / Cmax: male, rat, plasma, po; for MRT last: read-out: MRT(0-t); for MRT inf: read-out: MRT(0-∞); for Cmax: intragastric JHGs
Protocol: (§1) Healthy male Sprague Dawley (SD) rats of SPF grade (240 ± 20 g) were purchased from Sipeifu (Beijing, China) Biotechnology Co., Ltd. (Beijing, China), Certificate of Conformity No.: SCYK (Beijing, China) 2019-0015, Animal Quality Certificate No.: 110324220102348616. They were housed in the Animal Center of Henan University of Traditional Chinese Medicine, which passed the ethical audit, ethics number: DWLL202208003, breeding Co. 24 °C, relative humidity 50 ± 2%. The animals fasted for 12 h before the experiment and drank water freely. All feeding and experimental studies on experimental animals were in accordance with the regulations on the Management of Experimental Animals in Henan Province.
(§2) Twenty-four healthy male SD rats or PF model rats, weighing 240 ± 20 g, fasted for 12 h before the experiment and drank water freely. Both kinds of rats were randomly divided into four groups. Blank group: equal dose of water by intragastric, low dose; administration group: rats were given the equivalent human dose of JHGs by intragastric, i.e., 10.8 g of raw drug/kg/d (5.70 g/kg/d); medium-dose administration group: 2 times the human equivalent dose of JHGs by intragastric, i.e., 21.6 g of raw drug/kg/d (11.41 g/kg/d); high-dose administration group: 4 times the human equivalent dose of JHG, i.e., 43.2 g of raw drug/kg/d (22.81 g/kg/d). Blood was collected from the tail vein before and 0.083, 0.25, 0.5, 0.75, 1, 1.5, 2, 3, 4, 6, 8, 12, 18, and 24 h after dosing, respectively. A total of 0.5 mL was placed in a heparin sodium centrifuge tube. Whole blood was left for 30 min and then centrifuged in a low-temperature freezing centrifuge (4 °C, 3000 r/min) for 15 min. The upper layer of plasma was collected and stored in a refrigerator at −80 °C.
(§3) We added 50 μL of internal standard solution and 800 μL of methanol, shook for 15 min, then centrifuged at 12,000 r/min for 10 min, took the supernatant, dried in a centrifuge concentrator, added 50 μL of the initial mobile phase to the residue, dissolved, centrifuged, then separated the upper layer of the solution used as the test solution. A total of 5 μL test solution was taken into the sample for analysis. For each compound with a certain dosage, the same procedure is repeated six times in parallel. The concentration in plasma was calculated by the internal standard method.
Accucore C18 (100 mm × 2.1 mm, 2.6 μm) column at 25 °C, the mobile phase was methanol (A)-0.1% formic acid aqueous solution (B). The gradient elution program was 0–4 min (65% B-40% B), 4–5 min (40% B-40% B), 5–6 min (40% B-28% B), and 6–7 min (28% B-19% B), 7–7.5 min (19% B-10% B), 7.5–11 min (10% B-0% B), the flow rate was 0.2 mL/min, and the injection volume was 5 μL.
The ion source was an electrospray ionization source (ESI). Nitrogen acted as a carrier gas. The sheath gas pressure was 35 Arb. The auxiliary gas pressure was 7 Arb. The spray voltage was 3.50 kv(+), 2.50 kv(-). The ion transport tube temperature was regulated at 300 °C. Gasification temperature was 275 °C. The resolution was 50,000. The scanning mode was set as SIM mode. The optimized parameters obtained are in Table 5.
Under the established Orbitrap Fusion MS method, the pharmacokinetics of JHG in rats were studied to investigate the dynamic changes of the active components in rats. The pharmacokinetic parameters of each component in each dosing group were calculated by […] model analysis using Kinetica 5.1 (Innaphase, Waltham, MA, USA) pharmacokinetic analysis software. The pharmacotemporal curves were plotted by the plotting software. SPSS 19.0 (IBM, Armonk, NY, USA) was used to analyze all the parameters. Independent sample tests were performed after natural logarithmic transformation for AUC0–t, Cmax. The nonparametric Mann–Whitney test was applied for Tmax, t½, and MRT0–t. p < 0.05 was considered statistically significant.

[2] = Pharmacokinetics of JHG components in pulmonary fibrosis (PF) model rats after intragastric administration of JHGs (plasma, Orbitrap Fusion MS); type: in vivo, Sprague Dawley (SD) rats; conditions: for pharmacokinetic process (versus dosage): low, medium, high doses of JHGs
Protocol: as §1
The PF model in rats was replicated by reference to the conclusion tracheal intubation method in the literature. After the rats were anesthetized, bleomycin (BLM) (5 mg/kg) was used as an induction agent and followed the tracheal intubation method. BLM solution was aspirated with a 1 mL syringe and injected into the indwelling syringe. A total of 0.3 mL of air was rapidly pushed into the syringe, the rats were immediately stroked upright so that the BLM solution was evenly distributed in both lungs. BLM was given on day 0 for modeling, then gavage was taken after day 28, with fasting without water for 12 h before sampling. The histopathological examination was performed to verify the construction of the PF model. The rats were anesthetized by the abdominal cavity, then the lung tissues were violently shocked by opening the chest, and the right lower lobe of the lung was taken and fixed in 4% formaldehyde solution, then dehydrated by sucrose gradient, paraffin-embedded, and sectioned. H&E and Masson staining were performed to observe the degree of alveolitis of lung tissue and the degree of pulmonary fibrosis, respectively. The inflammation and fibrosis of lung tissues was observed under the light microscope.
as §2, §3
Accucore C18 (100 mm × 2.1 mm, 2.6 μm) column at 25 °C, the mobile phase was methanol (A)-0.1% formic acid aqueous solution (B). The gradient elution program was 0–4 min (65% B-40% B), 4–5 min (40% B-40% B), 5–6 min (40% B-28% B), and 6–7 min (28% B-19% B), 7–7.5 min (19% B-10% B), 7.5–11 min (10% B-0% B), the flow rate was 0.2 mL/min, and the injection volume was 5 μL. […]

[3] = Sprague Dawley, 5.7 g/kg/day, JHGs low dose 5.70 g/kg/d
[4] = Sprague Dawley, 5.7 g/kg/day, JHGs low dose 5.70 g/kg/d, read-out: Tmax
[5] = Sprague Dawley, 5.7 g/kg/day, low dose 5.70 g/kg/d, n=6 (1st of 3 stacked values)
[6] = Sprague Dawley, 11.41 g/kg/day, JHGs medium dose 11.41 g/kg/d
[7] = Sprague Dawley, 11.41 g/kg/day, JHGs medium dose 11.41 g/kg/d, read-out: Tmax
[8] = Sprague Dawley, 11.41 g/kg/day, medium dose 11.41 g/kg/d, n=6 (2nd of 3 stacked values)
[9] = Sprague Dawley, 22.81 g/kg/day, JHGs high dose 22.81 g/kg/d
[10] = Sprague Dawley, 22.81 g/kg/day, JHGs high dose 22.81 g/kg/d, read-out: Tmax
[11] = Sprague Dawley, 22.81 g/kg/day, high dose 22.81 g/kg/d, n=6 (3rd of 3 stacked values)

SMILES | Clearances ([1]; JHGs high dose 22.81 g/kg/d) | Vss ([1]; JHGs high dose 22.81 g/kg/d) | Clearances ([1]; JHGs low dose 5.70 g/kg/d) | Vss ([1]; JHGs low dose 5.70 g/kg/d) | Clearances ([1]; JHGs medium dose 11.41 g/kg/d) | Vss ([1]; JHGs medium dose 11.41 g/kg/d) | AUC(0-inf) [1, 3] | AUC(0-t) [1, 3] | half-life [1, 3] | MRT last [1, 3] | MRT inf [1, 3] | Tmax [1, 4] | Cmax [1, 5] | AUC(0-inf) [1, 6] | AUC(0-t) [1, 6] | half-life [1, 6] | MRT last [1, 6] | MRT inf [1, 6] | Tmax [1, 7] | Cmax [1, 8] | also measured
CC1CCC2N(C1)CC1C3CC4C(CC(O)C5CC(O)CCC54C)C3CCC1C2(C)O (stereo not drawn) [Peimine] | 88.7 ± 12.2 mL/min/kg | 60.06 ± 7.12 L | 31 ± 7.83 mL/min/kg | 131.39 ± 53.45 L | 75.5 ± 9.5 mL/min/kg | 61.2 ± 9.95 L | 24.7 ± 5.52 ng·h/mL | 7.38 ± 2.13 ng·h/mL | 52.1 ± 30.7 h | 11.1 ± 0.12 h | 75.3 ± 41.8 h | 4 h | 0.57 ± 0.22 ng/mL | 17.6 ± 2.24 ng·h/mL | 14.6 ± 1.9 ng·h/mL | 8.02 ± 0.39 h | 8.8 ± 0.32 h | 13.5 ± 0.58 h | 3.33 ± 0.58 h | 1.49 ± 0.26 ng/mL | pharmacokinetic process (Cmax and AUCs versus dosage) ([1]; low, medium, high doses of JHGs): linear pharmacokinetic process; AUC(0-inf) [1, 9]: 29.9 ± 4.92 ng·h/mL; AUC(0-t) [1, 9]: 26.6 ± 4.11 ng·h/mL; half-life [1, 9]: 7.23 ± 0.62 h; MRT last [1, 9]: 8.43 ± 0.11 h; MRT inf [1, 9]: 11.3 ± 0.63 h; Tmax [1, 10]: 2.67 ± 0.58 h; Cmax [1, 11]: 2.53 ± 0.56 ng/mL; MRT(0–t), PF model group compared with the control group ([2]; PF model vs control rats): decreased
CC1CCC2N(C1)CC1C3CC4C(CC(=O)C5CC(O)CCC54C)C3CCC1C2(C)O (stereo not drawn) [Peiminine] | 112 ± 30.2 mL/min/kg | 67.52 ± 15.96 L | 46.2 ± 14 mL/min/kg | 28.03 ± 8.27 L | 61 ± 18.7 mL/min/kg | 40.68 ± 9.67 L | 31.9 ± 9.55 ng·h/mL | 29.1 ± 8.48 ng·h/mL | 6.06 ± 0.22 h | 8.01 ± 0.09 h | 10.2 ± 0.32 h | 4.67 ± 1.15 h | 2.91 ± 0.9 ng/mL | 43.9 ± 16.4 ng·h/mL | 38.6 ± 13.2 ng·h/mL | 7.97 ± 0.84 h | 8.23 ± 0.25 h | 11.3 ± 1.03 h | 4 h | 4.22 ± 1.27 ng/mL | AUC(0-inf) [1, 9]: 46.1 ± 13.7 ng·h/mL; AUC(0-t) [1, 9]: 42 ± 11.7 ng·h/mL; half-life [1, 9]: 6.82 ± 0.57 h; MRT last [1, 9]: 7.84 ± 0.1 h; MRT inf [1, 9]: 10.1 ± 0.42 h; Tmax [1, 10]: 3 h; Cmax [1, 11]: 5.31 ± 1.61 ng/mL; Tmax, PF model group compared with the control group ([2]; PF model vs control rats): decreased significantly
C[C@@H]1O[C@@H](OC[C@H]2O[C@@H](Oc3c(-c4ccc(O)c(O)c4)oc4cc(O)cc(O)c4c3=O)[C@H](O)[C@@H](O)[C@@H]2O)[C@H](O)[C@H](O)[C@H]1O [Rutin] | – | – | – | – | – | – | – | – | – | – | – | – | – | – | – | – | – | – | – | – | correlation between CL, AUCs (AUC(0–t), AUC (0–∞)), t½, and dose [1]: no correlation; Tmax ([1]; Sprague-Dawley, after administration of JHGs, read-out: Tmax of all dosages): ≤ 2 h; pharmacokinetic process (versus dosage) ([2]; PF model rats): linear pharmacokinetic process; Tmax ([2]; male, Sprague-Dawley, rat, plasma, po, PF model rats, after administration of JHGs, read-out: Tmax of all dosages): ≤ 2 h
COc1cc(O)c2c(c1)oc(=O)c1c3cc(O)c(O)cc3oc21 [Wedelolactone] | 0.1 ± 0 mL/min/kg | 0.07 ± 0.01 L | 0.05 ± 0.017 mL/min/kg | 0.04 ± 0 L | 0.05 ± 0 mL/min/kg | 0.03 ± 0.01 L | 139 ± 45.6 ng·h/mL | 110 ± 24.7 ng·h/mL | 10.7 ± 3.69 h | 7.52 ± 0.34 h | 14 ± 3.66 h | 2 h | 18.6 ± 3.98 ng/mL | 276 ± 35.6 ng·h/mL | 242 ± 32.4 ng·h/mL | 8.01 ± 1.33 h | 8.23 ± 0.18 h | 11.6 ± 1.32 h | 3.67 ± 0.58 h | 27.8 ± 2.35 ng/mL | AUC(0-inf) [1, 9]: 262 ± 13.5 ng·h/mL; AUC(0-t) [1, 9]: 221 ± 17.2 ng·h/mL; half-life [1, 9]: 8.2 ± 0.63 h; MRT last [1, 9]: 7.5 ± 0.21 h; MRT inf [1, 9]: 12 ± 1.32 h; Tmax [1, 10]: 1.83 ± 0.29 h; Cmax [1, 11]: 35.4 ± 2.29 ng/mL; pharmacokinetic process (versus dosage) ([2]; PF model rats): linear pharmacokinetic process; MRT(0–t), PF model group compared with the control group ([2]; PF model vs control rats): decreased

Reference: paper PMC10534582, “A Pharmacokinetic Study of Sixteen Major Bioactive Components of Jinshui-Huanxian Granules in Pulmonary Fibrosis Model and Control Rats Using Orbitrap Fusion Mass Spectrometry” (Molecules, 2023)
